Results: publication PMC4645160, “Targeting kinases with anilinopyrimidines: discovery of N-phenyl-N’-[4-(pyrimidin-4-ylamino)phenyl]urea derivatives as selective inhibitors of class III receptor tyrosine kinase subfamily” (Scientific Reports, 2015)

Assays:
A549 cells = test: MTT cytotoxicity assay, A549 lung cancer cells; format: cell-based, human; conditions: for IC50: Homo sapiens, A549, 72 h, MTT test, 72 h of drug treatment, read-out: A549 IC50 (μM) ± SD; for Potency relative to SU (A549): ratio between IC50 of sunitinib and IC50 of tested compound
Method: (§1) Compounds active against at least one kinase among EGFR and class III RTKs were evaluated for their cytotoxic properties against two different human cancer cell lines, namely non small cells A549 lung cancer cells (sensitive to EGFR inhibitors)[46] and pancreatic BxPC3 adenocarcinoma (sensitive to both PDGFRβ and EGFR inhibitors)[47][48] cells. […] The results, expressed as IC50 values (μM) calculated from the dose-survival curves obtained after 72 h of drug treatment from the MTT test, are reported in Table 1.
(§2) All compounds, except derivative 27, were dissolved in DMSO just before the experiment, and a calculated amount of drug solution was added to the cell growth medium to a final solvent concentration of 0.5%, which had no discernible effect on cell killing. Compound 27 was dissolved in a 0.9% NaCl solution just before the experiment.
(§3) Human lung (A549), breast (MCF-7), pancreas (BxPC3), and colon (LoVo) carcinoma cell lines along with melanoma (A375) were obtained from American Type Culture Collection (ATCC, Rockville, MD). Human non-tumor embryonic kidney HEK293 cells were obtained from European Collection of Cell Cultures (ECACC, Salisbury, UK). Human cervical carcinoma A431cells were kindly provided by Prof. F. Zunino (Division of Experimental Oncology B, Istituto Nazionale dei Tumori, Milan, Italy). Human ovarian cancer 2008 cells were kindly provided by Prof. G. Marverti (Dept. of Biomedical Science of Modena University, Italy). Cell lines were maintained in the logarithmic phase at 37 °C in a 5% carbon dioxide atmosphere using the following culture media containing 10% fetal calf serum (Euroclone, Milan, Italy), antibiotics (50 units ∙ mL^−1 penicillin and 50 μg ∙ mL^−1 streptomycin) and 2 mM l-glutamine: i) RPMI-1640 medium (Euroclone) for MCF-7, A431, BxPC3 and 2008 cells; ii) F-12 HAM’S (Sigma Chemical Co.) for A549 and LoVo cells; iii) D-MEM medium (Euroclone) for HEK293 cells.
(§4) The growth inhibitory effect towards human cell lines was evaluated by means of MTT (tetrazolium salt reduction) assay. Briefly, 3–8 ∙ 10^3 cells/well, dependent upon the growth characteristics of the cell line, were seeded in 96-well microplates in growth medium (100 μL) and then incubated at 37 °C in a 5% carbon dioxide atmosphere. After 24 h, the medium was removed and replaced with a fresh one containing the test compound at the appropriate concentration. Triplicate cultures were established for each treatment. After 72 h, each well was treated with 10 μL of a 5 mg ∙ mL-1 MTT (3-(4,5-dimethylthiazol-2-yl)-2,5-diphenyltetrazolium bromide) saline solution, and after 5 h additional incubation, 100 μL of a sodium dodecylsulfate (SDS) solution in HCl 0.01 M were added. After overnight incubation, the inhibition of cell growth induced by the tested complexes was detected by measuring the absorbance of each well at 570 nm using a Bio-Rad 680 microplate reader (Bio-Rad, Hercules, CA). Mean absorbance for each drug dose was expressed as a percentage of the control untreated well absorbance and plotted vs drug concentration.

panel of 48 kinases = test: KinomeScan primary screening (POC) at 10 μM; format: binding, human; conditions: POC values
Excerpt: Synthesized compounds were screened against a panel of 48 kinases selected within the ScanEDGE subset of DiscoverX (http://www.discoverx.com/services/drug-discovery-development-services/kinase-profiling/kinomescan/scanedge). The ScanEDGE includes 97 kinases and is an economical approach to assess compounds selectivity throughout the human kinome. All the wt-TKs along with some relevant mutants of Abl1 (T315I) and of EGFR (L858R and L858R/T790M) were chosen. The remaining 18 targets (3 Tyrosine Kinases-Like, TKLs; 15 Serine-Threonine Kinases, STKs) were selected among the remaining kinases in the ScanEDGE subset on the basis of their well established role in cancer (see Fig. S2 for a graphical representation of the selected kinases with reference to the kinome tree. Some references highlighting the role of each kinase in cancer are also reported in Table S3).
The compounds were evaluated using the KinomeScan™ platform (http://www.discoverx.com/services/drug-discovery-development-services/kinase-profiling/kinomescan), that measures the ability of the test compound to disrupt the complex between a high affinity ATP-mimic probe immobilized on a solid support and the kinase of interest. The KinomeScan is a very helpful technology for the fast and reliable screening of a number of compounds against a wide and customizable panel of kinases. Besides, it is not based on the use of hazardous radioactive ^32P-ATP and has a very low rate of false positive (<1%)[44]. The screening platform outputs a “Percent of Control” (POC) value, statistically correlated to the dissociation constant (Kd) value (http://www.discoverx.com/tools-resources/leadhunter-study-reports-data-analysis), for each pair of kinase/ligand. The POC is calculated as reported in equation (1):
Where: test compound signal = amount of kinase still binding the probe after treatment with test compound; negative control signal = amount of kinase still binding the probe after treatment with DMSO (100% control); positive control signal = amount of kinase still binding the probe after treatment with control compound (0% control).
The compounds were tested at high concentration (10 μM), in order to highlight not only the main target but also the off-targets. The results of the preliminary screening are reported as heat map (Fig. 4; see also Table S4 for all the measured values), in which the compounds are grouped on the basis of the 6 or 5 substituent at the pyrimidine ring.

BxPC3 cells = test: MTT cytotoxicity assay, BxPC3 pancreatic adenocarcinoma cells; format: cell-based, human; conditions: for IC50: Homo sapiens, BXPC-3, MTT test, 72 h of drug treatment, read-out: BxPC3 IC50 (μM) ± SD; for Potency relative to SU (BxPC3): ratio between IC50 of sunitinib and IC50 of tested compound
Method: as §1, §2, §3, §4

MCF-7 cells = test: MTT cytotoxicity assay, MCF-7 breast cancer cells; format: cell-based; conditions: Homo sapiens, MCF7; MTT test, 72 h; read-out: MCF-7 IC50 (μM) ± SD
Method: (§5) The cytotoxic profile of 19 and 27 was assessed on a wider panel of human tumor cell lines including also examples of breast (MCF-7), cervical (A431), colorectal (HCT-15), and ovarian (2008) cancers as well as melanoma (A375), besides lung (A549) and pancreatic (BxPC3) cancer cells. IC50 values, calculated from the dose-survival curves obtained after 72 h of drug treatment from the MTT test, are reported in Table 2. […] Both compounds were endowed with a cytotoxic potency higher than that of SU, eliciting IC50 values in the low micromolar range.
as §2
(§6) Human lung (A549), breast (MCF-7), pancreas (BxPC3), and colon (LoVo) carcinoma cell lines along with melanoma (A375) were obtained from American Type Culture Collection (ATCC, Rockville, MD). Human non-tumor embryonic kidney HEK293 cells were obtained from European Collection of Cell Cultures (ECACC, Salisbury, UK). Human cervical carcinoma A431cells were kindly provided by Prof. F. Zunino (Division of Experimental Oncology B, Istituto Nazionale dei Tumori, Milan, Italy). Human ovarian cancer 2008 cells were kindly provided by Prof. G. Marverti (Dept. of Biomedical Science of Modena University, Italy). […]
(§7) The growth inhibitory effect towards human cell lines was evaluated by means of MTT (tetrazolium salt reduction) assay. […] After overnight incubation, the inhibition of cell growth induced by the tested complexes was detected by measuring the absorbance of each well at 570 nm using a Bio-Rad 680 microplate reader (Bio-Rad, Hercules, CA). Mean absorbance for each drug dose was expressed as a percentage of the control untreated well absorbance and plotted vs drug concentration.

LoVo cells = test: MTT cytotoxicity assay, LoVo colon carcinoma cells; format: cell-based; conditions: Homo sapiens, MTT test, 72 h, read-out: LoVo IC50 (μM) ± SD
Method: as §5, §2, §6, §7

A375 cells = test: MTT cytotoxicity assay, A375 melanoma cells; format: cell-based; conditions: Homo sapiens, A-375; MTT test, 72 h; read-out: A375 IC50 (μM) ± SD
Method: as §5, §2, §6, §7

HEK293 cells = test: MTT cytotoxicity assay, non-tumor HEK293 cells; format: cell-based, human; conditions: Homo sapiens, HEK293; MTT test, 72 h, non-tumor cells; read-out: HEK293 IC50 (μM) ± SD
Method: F. Zunino (Division of Experimental Oncology B, Istituto Nazionale dei Tumori, Milan, Italy).
The growth inhibitory effect towards human cell lines was evaluated by means of MTT (tetrazolium salt reduction) assay. […] Triplicate cultures were established for each treatment.

2008 cells = test: MTT cytotoxicity assay, 2008 ovarian cancer cells; format: cell-based; conditions: Homo sapiens; MTT test, 72 h; read-out: 2008 IC50 (μM) ± SD
Method: as §5, §2, §6, §7

Cc1cccc(Nc2cc(Nc3ccccc3)ncn2)c1 [Compound 1]
melting point: 254 °C
IC50 (A549 cells): 8.94 ± 2.18 µM
Potency relative to SU (A549) (A549 cells): 0.70
Selectivity profile (kinases targeted) in primary screening (panel of 48 kinases): EGFR selective
IC50 (BxPC3 cells): 6.43 ± 1.78 µM
Potency relative to SU (BxPC3) (BxPC3 cells): 0.79

c1ccc(Nc2cc(Nc3cccc(-c4ccccc4)c3)ncn2)cc1 [Compound 2]
melting point: 267 °C
IC50 (A549 cells): 26.5 ± 3.85 µM
Potency relative to SU (A549) (A549 cells): 0.23
IC50 (BxPC3 cells): 17.9 ± 2.46 µM
Potency relative to SU (BxPC3) (BxPC3 cells): 0.28

Oc1cccc(Nc2cc(Nc3ccccc3)ncn2)c1 [Compound 3]
melting point: 253 °C
IC50 (A549 cells): 28.2 ± 5.46 µM
Potency relative to SU (A549) (A549 cells): 0.22
IC50 (BxPC3 cells): 8.19 ± 2.18 µM
Potency relative to SU (BxPC3) (BxPC3 cells): 0.62

Cc1ccc(Nc2cc(Nc3ccccc3)ncn2)cc1 [Compound 4]
melting point: 265 °C
IC50 (A549 cells): 14.2 ± 2.75 µM
Potency relative to SU (A549) (A549 cells): 0.44
Selectivity profile (kinases targeted) in primary screening (panel of 48 kinases): EGFR selective
IC50 (BxPC3 cells): 23.2 ± 4.29 µM
Potency relative to SU (BxPC3) (BxPC3 cells): 0.22

Oc1ccc(Nc2cc(Nc3ccccc3)ncn2)cc1 [Compound 5]
melting point: 286 °C
IC50 (A549 cells): 16.3 ± 4.24 µM
Potency relative to SU (A549) (A549 cells): 0.38
Selectivity profile (kinases targeted) in primary screening (panel of 48 kinases): EGFR; class III RTK; AXL
IC50 (BxPC3 cells): 6.51 ± 1.07 µM
Potency relative to SU (BxPC3) (BxPC3 cells): 0.78

Nc1ccc(Nc2cc(Nc3ccccc3)ncn2)cc1 [Compound 6]
IC50 (A549 cells): 34 ± 4.98 µM
Potency relative to SU (A549) (A549 cells): 0.18
IC50 (BxPC3 cells): 16.1 ± 4.85 µM
Potency relative to SU (BxPC3) (BxPC3 cells): 0.31

Cc1cccc(Nc2cc(Nc3cccc(C)c3)ncn2)c1 [Compound 8]
IC50 (A549 cells): > 50 µM
Potency relative to SU (A549) (A549 cells): <0.12
IC50 (BxPC3 cells): > 50 µM
Potency relative to SU (BxPC3) (BxPC3 cells): <0.10

Brc1cccc(Nc2cc(Nc3cccc(Br)c3)ncn2)c1 [Compound 9]
melting point: 243 °C
IC50 (A549 cells): > 50 µM
Potency relative to SU (A549) (A549 cells): <0.12
IC50 (BxPC3 cells): > 50 µM
Potency relative to SU (BxPC3) (BxPC3 cells): <0.10

Oc1ccc(Nc2cc(Nc3ccc(O)cc3)ncn2)cc1 [Compound 12]
IC50 (A549 cells): > 50 µM
Potency relative to SU (A549) (A549 cells): <0.12
Selectivity profile (kinases targeted) in primary screening (panel of 48 kinases): EGFR; calss III RTK; AXL; TRKA; JAK3
IC50 (BxPC3 cells): > 50 µM
Potency relative to SU (BxPC3) (BxPC3 cells): <0.10

Cc1cccc(Nc2cc(-c3ccccc3)ncn2)c1 [Compound 13]
melting point: 272 °C
Selectivity profile (kinases targeted) in primary screening (panel of 48 kinases): Inactive

Cc1cccc(Nc2ncncc2-c2ccccc2)c1 [Compound 20]
Selectivity profile (kinases targeted) in primary screening (panel of 48 kinases): Inactive

Oc1ccc(Nc2ncncc2-c2ccccc2)cc1 [Compound 24]
melting point: 118 °C
IC50 (A549 cells): 12.1 ± 1.99 µM
Potency relative to SU (A549) (A549 cells): 0.51
IC50 (BxPC3 cells): 16.4 ± 4.22 µM
Potency relative to SU (BxPC3) (BxPC3 cells): 0.31

Nc1ccc(Nc2ncncc2-c2ccccc2)cc1 [Compound 25]
IC50 (A549 cells): 26.1 ± 4.55 µM
Potency relative to SU (A549) (A549 cells): 0.24
IC50 (BxPC3 cells): 27.9 ± 5.28 µM
Potency relative to SU (BxPC3) (BxPC3 cells): 0.18

O=C(Nc1ccccc1)Nc1ccc(Nc2ncncc2-c2ccccc2)cc1 [Compound 26]
IC50 (A549 cells): 28.9 ± 5.86 µM
Potency relative to SU (A549) (A549 cells): 0.21
Selectivity profile (kinases targeted) in primary screening (panel of 48 kinases): class III RTK
IC50 (BxPC3 cells): 30.9 ± 4.18 µM
Potency relative to SU (BxPC3) (BxPC3 cells): 0.16

CCN(CC)CCNC(=O)c1c(C)[nH]c(/C=C2\C(=O)Nc3ccc(F)cc32)c1C [SU, sunitinib, reference compound]
IC50 (MCF-7 cells): 2.58 ± 0.85 µM
IC50 (A549 cells): 6.22 ± 1.84 µM
IC50 (LoVo cells): 8.18 ± 2.67 µM
IC50 (A375 cells): 8.25 ± 2.88 µM
IC50 (BxPC3 cells): 5.05 ± 1.34 µM
IC50 (HEK293 cells): 12.2 ± 2.83 µM
IC50 (2008 cells): 3.52 ± 1.22 µM
